Data set [1] deals with T1, CYP2C9 (Homo sapiens, UniProt P11712).
Data set [2] addresses T1, CYP2C9. The experiment in a line: in vitro.
For data set [3], the target named is T1, CYP2C9. As to conditions: cited from earlier work.
Data set [4] concerns the target T2, CYP3A4 (Homo sapiens, UniProt P08684). Nature of the data set: MesaPlate metabolic stability.
The target in data set [5] is T3, CYP1A2 (Homo sapiens, UniProt P05177).
T3 sequence (P05177 1-516): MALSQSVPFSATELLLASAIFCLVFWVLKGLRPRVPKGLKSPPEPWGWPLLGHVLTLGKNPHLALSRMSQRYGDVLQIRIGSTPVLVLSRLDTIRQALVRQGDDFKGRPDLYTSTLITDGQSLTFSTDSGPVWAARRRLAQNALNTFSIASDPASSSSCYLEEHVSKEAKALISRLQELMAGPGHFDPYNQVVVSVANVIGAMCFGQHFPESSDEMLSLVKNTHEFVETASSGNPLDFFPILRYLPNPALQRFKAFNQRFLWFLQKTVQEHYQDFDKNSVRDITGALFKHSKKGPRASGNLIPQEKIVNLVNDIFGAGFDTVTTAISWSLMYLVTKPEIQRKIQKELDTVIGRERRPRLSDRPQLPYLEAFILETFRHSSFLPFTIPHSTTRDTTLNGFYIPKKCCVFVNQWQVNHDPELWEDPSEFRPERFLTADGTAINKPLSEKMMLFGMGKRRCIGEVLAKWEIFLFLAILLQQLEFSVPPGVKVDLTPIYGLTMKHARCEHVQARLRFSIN
As to conditions: CYP1A2, substrate conc. 500 μM.

Data set [6] deals with T3, CYP1A2. As to conditions: CYP1A2, substrate conc. 500 μM. The source holds these as a separate data set.
Data set [7] deals with T4, CYP2D6 (Homo sapiens, UniProt P10635). Nature of the data set: MesaPlate metabolic stability. The format is in vitro ADME.
T4 sequence (P10635 whole entry): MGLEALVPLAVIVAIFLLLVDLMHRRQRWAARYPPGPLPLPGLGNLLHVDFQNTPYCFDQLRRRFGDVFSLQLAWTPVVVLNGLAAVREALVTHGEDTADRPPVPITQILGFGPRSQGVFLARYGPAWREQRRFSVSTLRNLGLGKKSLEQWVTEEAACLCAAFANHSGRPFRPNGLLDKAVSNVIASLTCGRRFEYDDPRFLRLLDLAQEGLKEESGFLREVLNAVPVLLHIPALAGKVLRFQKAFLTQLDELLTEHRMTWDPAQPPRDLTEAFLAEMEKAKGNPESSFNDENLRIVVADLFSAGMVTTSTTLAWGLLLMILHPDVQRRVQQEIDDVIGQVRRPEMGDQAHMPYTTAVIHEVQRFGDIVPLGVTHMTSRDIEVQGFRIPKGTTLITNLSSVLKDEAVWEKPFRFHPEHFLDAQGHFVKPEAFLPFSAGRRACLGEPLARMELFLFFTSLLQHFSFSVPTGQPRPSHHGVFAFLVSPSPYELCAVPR
The target in data set [8] is T4, CYP2D6. Nature of the data set: Metabolic stability measured with chromatography. The class given is in vitro ADME.
In data set [9] the test system is pooled human liver microsomes. The class given is in vitro ADME. As to conditions: substrates dextromethorphan (CYP2D6), diclofenac (CYP2C9), phenacetin (CYP1A2), testosterone (CYP3A4).
The target of data set [10] is T2, CYP3A4. As to conditions: read-out: IC50, literature value; cited from earlier work.
Data set [11] has as its target T2, CYP3A4. Nature of the data set: Inhibition of CYP3A4-catalyzed testosterone metabolism in Baculosomes.

Where two headings read alike, the source gives them in different places.

T2 sequence (P08684 whole entry): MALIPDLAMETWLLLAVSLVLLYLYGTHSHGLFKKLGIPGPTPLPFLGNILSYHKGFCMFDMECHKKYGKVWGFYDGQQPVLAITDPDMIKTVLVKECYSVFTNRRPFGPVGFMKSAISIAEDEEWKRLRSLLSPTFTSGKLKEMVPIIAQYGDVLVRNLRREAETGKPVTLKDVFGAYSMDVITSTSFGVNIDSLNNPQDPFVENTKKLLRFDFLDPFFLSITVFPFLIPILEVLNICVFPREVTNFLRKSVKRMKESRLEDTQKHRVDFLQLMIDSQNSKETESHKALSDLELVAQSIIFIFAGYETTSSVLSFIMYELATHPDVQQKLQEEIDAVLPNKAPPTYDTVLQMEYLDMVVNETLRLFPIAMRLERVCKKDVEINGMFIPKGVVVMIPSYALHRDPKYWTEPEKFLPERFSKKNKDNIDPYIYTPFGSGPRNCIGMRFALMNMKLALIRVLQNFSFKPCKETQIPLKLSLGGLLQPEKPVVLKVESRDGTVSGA
T1 sequence (P11712 whole entry): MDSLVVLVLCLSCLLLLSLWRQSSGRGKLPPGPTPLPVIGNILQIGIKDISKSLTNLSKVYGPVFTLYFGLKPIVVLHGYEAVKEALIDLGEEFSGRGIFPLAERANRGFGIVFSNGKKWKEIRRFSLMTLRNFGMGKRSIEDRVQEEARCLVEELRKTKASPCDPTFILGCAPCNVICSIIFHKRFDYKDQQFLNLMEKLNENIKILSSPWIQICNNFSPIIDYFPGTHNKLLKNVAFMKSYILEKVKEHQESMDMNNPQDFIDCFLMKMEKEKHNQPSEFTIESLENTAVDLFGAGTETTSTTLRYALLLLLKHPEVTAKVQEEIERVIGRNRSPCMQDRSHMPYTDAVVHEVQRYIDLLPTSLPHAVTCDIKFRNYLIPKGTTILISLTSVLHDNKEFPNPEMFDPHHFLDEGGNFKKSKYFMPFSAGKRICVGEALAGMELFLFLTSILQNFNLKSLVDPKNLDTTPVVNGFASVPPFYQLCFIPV

Consider `O=C(O)Cc1ccccc1Nc1c(Cl)cccc1Cl` [Diclofenac], for which the “kcat (MesaPlate)” value at CYP2C9 [1] was determined as 0.183 ± 0.017 s⁻¹. The Km on CYP2C9 [2] turned out to be 20 ± 7 µM. Also, at CYP2C9 [3], the Km is 5 µM and the “kcat (Literature)” value was 0.483 s⁻¹.
Take `C[C@]12CC[C@H]3[C@@H](CCC4=CC(=O)CC[C@@]43C)[C@@H]1CC[C@@H]2O` [Testosterone]: the “kcat (MesaPlate)” value at CYP3A4 [4] (CYP3A4, Michaelis-Menten fit) turned out to be 1.97 ± 0.13 s⁻¹. The Km at CYP3A4 [4] (human, Baculosomes with CYP3A4) is 31 ± 7 µM.
Take `Cc1c[nH]c2ccccc12` [3-methylindole]: on CYP1A2 [5], the “−rRH (metabolic stability), MesaPlate” value is listed as 15.8 ± 1.8 nmol/min/nmol P450. Moreover, at CYP1A2 [6], the “−rRH (metabolic stability), Chromatography” value (“−rRH … Chromatography” below) stood at 10.7 ± 0.8 nmol/min/nmol P450.
With `CN(C)CCC=C1c2ccccc2CCc2ccccc21` [Amitriptyline], the “−rRH (metabolic stability), MesaPlate” value on CYP2D6 [7] (CYP2D6, substrate conc. 60 μM) turned out to be 6.7 ± 0.8 nmol/min/nmol P450. Besides, the “−rRH … Chromatography” value on CYP2D6 [8] (CYP2D6, substrate conc. 60 μM) is 3.8 ± 0.4 nmol/min/nmol P450.
As for `c1ccc(-n2ccnc2)cc1` [1-phenylimidazole], the “measured rate of P450 oxidation in the presence of inhibitor” value in data set [9] is on record as “much lower”. The IC50 was 2700 nM at CYP3A4 [10] and 2390 ± 10 nM against CYP3A4 [11].
In the case of `COCCc1ccc(OCC(O)CNC(C)C)cc1` (stereo not drawn) [Metoprolol], the “−rRH (metabolic stability), MesaPlate” value at CYP2D6 [7] (CYP2D6, substrate conc. 100 μM) was found to be 12.2 ± 2.2 nmol/min/nmol P450. The “−rRH … Chromatography” value at CYP2D6 [8] (CYP2D6, substrate conc. 100 μM) was determined as 9.8 ± 2.3 nmol/min/nmol P450.

The term Km denotes the concentration of substrate that gives half-maximal velocity. By IC50 is commonly meant the concentration at which inhibition is half-maximal.

The values are drawn from article PMC3179854 (Journal of the American Chemical Society, 2011).
